According to patent publication US10322098B2, “Composition for use in the treatment of intervertebral disc-related pain” (STAYBLE THERAPEUTICS AB, priority 2014, dated 2019):

Key:
[1] = test system: disc space of the L3-4 intervertebral disc; assay: Dimension of the disc space after local injection into the nucleus pulposus in a pig; type: in vivo; conditions: injected L3-4 disc compared with non-injected L2-3 and L4-5; FIG. 7
Procedure: 110. performing a cross-section of the discs and measuring the length (anterio-posterior direction) and the width (bilateral direction) of the disc space. Two pigs were anesthetized and placed on their right side. Access to the L4-5 intervertebral disc was obtained through a lateral incision between the lowest rib and the iliac crest on the left side of each pig. Thereafter, the L3-4 intervertebral disc was incised with a scalpel. […] The composition was injected in a single step at a single occasion. The intervertebral discs (L2-3, L3-4, L4-5) were cross-sectioned and the length of the disc space (anterio-posterior direction) and the width (bilateral direction) of the disc space were measured by calipers. In FIGS. 5 and 6, an intervertebral disc is schematically shown in cross-section. The intervertebral disc comprises the annulus fibrosus 10, and a disc space defined by the annulus fibrosus and comprising the nucleus pulposus 11.

[2] = Tolerability of intradiscal injection in pigs (behaviour, injection site by the naked eye); type: in vivo, pig; conditions: two pigs
Procedure: Two pigs were anesthetized and placed on their right side. Access to the L4-5 intervertebral disc was obtained through a lateral incision between the lowest rib and the iliac crest on the left side of each pig. Thereafter, the L3-4 intervertebral disc was incised with a scalpel.
The composition was injected in a single step at a single occasion.
At harvest, the pigs were killed.
The injection site was observed by the naked eye. […] The segment of the vertebral column extending from the lumbar vertebra L2 to the sacral vertebra S1 was removed. The facet joints were removed, thus allowing full flexibility of the discs with no restraints from other structures.

CC(O)C(=O)O (stereo not drawn) [lactic acid]
Observation of the cross-sectioned disc space by the naked eye [1]: newly formed connective tissue in the disc space
Adverse reaction such as decreased mobility or vocalization ([2]; 0.2 mL of 1.34 mol/L into L3-4 nucleus pulposus, period of seven days until harvest): no adverse reaction
Adverse reaction at the injection site, such as bleedings, inflammation or necrosis ([2]; observed by the naked eye at harvest, seven days): No adverse reaction
